Assay results reported in US20130030025A1, “USE OF POTASSIUM CHANNEL BLOCKERS TO TREAT CEREBRAL PALSY” (priority 2011, published 2013).
“And” between values parts separate entries of the source, which are not always exact repeats. Identical values can stand only once. “Also recorded” adds a separate entry of the source.

How the values were obtained:
Assay type in all cases: in vivo, Sprague Dawley rats
[1] = test system: middle cerebral artery occlusion (MCAO) in rats; assay: Forelimb placing test after MCAO; settings: for Forelimb Placing Total Score: individual animals, Group II, 0=normal, 12=maximally impaired
Experimental: (§1) 4-AP was evaluated for its ability to promote functional sensorimotor improvement following ischemic stroke in rats with stable motor deficits at times remote from their ischemic events. The animal model mimics the conditions in human ischemic stroke and is produced by middle cerebral artery occlusion (MCAO), which results in extensive infarction in cerebral cortex and striatum, including the cortical spinal tract (white matter). In particular, the MCAO model in Sprague Dawley rats that was utilized in the experiments presented below mimics the conditions in human ischemic stroke. In this experiment, Sprague Dawley rats were anesthetized, subjected to a surgery resulting in middle cerebral artery occlusion (MCAO), treated with and without 4-aminopyridine and behavioral assessments were performed as described below. Surgical Procedure: A small focal stroke (infarct) was made on the right side of the surface of the brain (cerebral cortex) by middle cerebral artery occlusion (MCAO). The right side of the head was shaved with electric clippers (patch of approx 3×5 cm between eye and ear). The region was carefully cleaned with septisol. Using aseptic technique, an incision was made midway between the eye and eardrum canal. The temporalis muscle was isolated, bisected, and reflected. A small window of bone was removed via drill and rongeurs (subtemporal craniectomy) to expose the middle cerebral artery (MCA). Care was taken not to remove the zygomatic arch or to transect the facial nerve that would impair the ability of the animal to chew after surgery. […] The MCA was then transected. The temporalis muscle was then repositioned, and the incision was closed subcutaneously with sutures. The skin incision was closed with surgical staples (2-3 required). Throughout the procedure, body temperature was maintained at 37.0°±1° C., using a self-regulating heating pad connected to a rectal thermometer. Dosing: Rats were treated in accordance with the dosing schedule shown in Tables 1A, 1B, and FIG. 2, with each Phase being a two week period of time. A solution of 4-AP was used in this experiment. Dosing was started at 4 weeks after ischemic event. Treatment groups: Dosing was started 4 weeks after pMCAO surgery. During these 4 weeks, weekly behavioral assessments, as defined below, were performed. Two dose levels of 4-AP plus vehicle control were assessed, with treatment starting at 4 weeks after ischemic event. All dosing was via gastric gavage, volume not to exceed 2 mL/kg. Animals were given the first dose and behavioral assessments were performed starting 60 minutes after dosing. Animals then received the second dose that day at the appropriate time and b.i.d (preferably every 12 hours) thereafter for 2 more days (3 total days of dosing, 5 total doses). One hour after the 5th dose, animals were subjected to behavioral assessments as defined below. Following the final behavioral assessment, drug was withdrawn for 10 or 11 days, behavior was re-assessed, and then animals were re-challenged with a cross-over treatment (Phase II of Table 1B) as described in Tables 1A, 1B, followed by the same behavioral testing and dosing regimen. This cross-over was repeated one more time as well (Phase III of Table 1B) (see FIG. 2). Behavioral test details: Behavioral evaluations were done by investigators blinded to treatment assignment. As described above, behavioral assessments were timed exactly with dosing times. Animals were given the first dose, behavioral assessments were performed starting 60 minutes later, and blood was collected 90 minutes after dosing. Animals then received the second dose that day at the appropriate time and b.i.d (preferably every 12 hours) thereafter for 2 more days (3 total days of dosing, 5 total doses). One hour after the 5th dose, animals were subjected to behavioral testing. […]

[2] = test system: middle cerebral artery occlusion (MCAO) in rats; assay: Hindlimb placing test after MCAO; set-up: Hindlimb Placing Total Score, Mean: scale not given here
Experimental: as §1

[3] = test system: middle cerebral artery occlusion (MCAO) in rats; assay: Cylinder test, overall limb-use asymmetry (%) after MCAO; settings: for Cylinder Test Score (Overall Asymmetry (%)): individual animals
Experimental: as §1

[4] = group mean N=15, Group I, Phase 2, D44, Low 4-AP 0.63 mg/kg b.i.d. p.o., after first dose

Nc1ccncc1 [4-AP, 4-aminopyridine]
Forelimb Placing Total Score ([1]; Phase 3, D58, High 4-AP 2.0 mg/kg b.i.d. p.o., 60 min after first dose): 2.50 (2×) and 0.00 (3×) and 1.50 (2×) and 3.00 and 5.00 and 2.00
Forelimb Placing Total Score ([1]; Phase 3, D60, High 4-AP 2.0 mg/kg b.i.d. p.o., 1 h after 5th dose): 1.00 (4×) and 0.00 (4×) and 1.50 and 3.50
effect on forelimb function (forelimb placing test) ([1]; low or high dose, 4 weeks post ischemic brain injury, rats, dose-responsive, reversible): effective to improve forelimb function; also recorded: significant improvement
Hindlimb Placing Total Score ([2]; Group II, D30, individual animals): 2.50 and 1.50 (4×) and 2.00 (3×) and 1.00 and 0.50
Hindlimb Placing Total Score, Mean ([2]; Group II, D30, mean of N 15): 1.73
Hindlimb Placing Total Score ([2]; Group II, D32, individual animals): 2.00 and 1.00 (3×) and 1.50 (5×) and 0.50
Hindlimb Placing Total Score, Mean ([2]; Group II, D32, mean of N 15): 1.37
Hindlimb Placing Total Score ([2]; Group II, D58, individual animals): 2.00 and 0.00 (4×) and 1.00 and 1.50 (3×) and 0.50
Hindlimb Placing Total Score, Mean ([2]; Group II, D58, mean of N 15): 0.83
Hindlimb Placing Total Score ([2]; Group II, D60, individual animals): 0.50 (3×) and 0.00 (6×) and 1.00
Hindlimb Placing Total Score, Mean ([2]; Group II, D60, mean of N 15): 0.23
Hindlimb Placing Total Score, Mean ([2]; Group III, D44, high dose phase (inferred), mean of N 15): 0.90
Hindlimb Placing Total Score, Mean ([2]; Group III, D46, high dose phase (inferred), mean of N 15): 0.30
Hindlimb Placing Total Score, Mean ([2]; Group III, D58, low dose phase (inferred), mean of N 15): 0.80
Hindlimb Placing Total Score, Mean ([2]; Group III, D60, low dose phase (inferred), mean of N 15): 0.70
Hindlimb Placing Total Score, Mean ([2]; group mean N=15, Group I, Phase 1, D30, High 4-AP 2.0 mg/kg b.i.d. p.o., after first dose): 1.67
Hindlimb Placing Total Score, Mean ([2]; group mean N=15, Group I, Phase 1, D32, High 4-AP 2.0 mg/kg b.i.d. p.o., after 5th dose): 0.97
Hindlimb Placing Total Score, Mean [2, 4]: 1.33
Hindlimb Placing Total Score, Mean ([2]; group mean N=15, Group I, Phase 2, D46, Low 4-AP 0.63 mg/kg b.i.d. p.o., after 5th dose): 1.13
Hindlimb Placing Total Score ([2]; individual animals, Group I, Phase 1, D30, High 4-AP 2.0 mg/kg b.i.d. p.o., 60 min after first dose, 0=normal, 6=maximally impaired): 1.50 (7×) and 3.00 (2×) and 2.50 (2×) and 2.00 and 1.00 and 0.00 and 0.50
Hindlimb Placing Total Score ([2]; individual animals, Group I, Phase 1, D32, High 4-AP 2.0 mg/kg b.i.d. p.o., 1 h after 5th dose, 0=normal, 6=maximally impaired): 1.00 and 3.00 and 1.50 (6×) and 0.00 (4×) and 0.50 (3×)
Hindlimb Placing Total Score ([2]; individual animals, Group I, Phase 2, D44, Low 4-AP 0.63 mg/kg b.i.d. p.o., 60 min after first dose, 0=normal, 6=maximally impaired): 2.00 (4×) and 3.00 and 1.50 (3×) and 0.50 (2×) and 0.00 (3×) and 2.50 and 1.00
Hindlimb Placing Total Score ([2]; individual animals, Group I, Phase 2, D46, Low 4-AP 0.63 mg/kg b.i.d. p.o., 1 h after 5th dose, 0=normal, 6=maximally impaired): 2.00 (3×) and 3.00 and 1.50 (4×) and 0.00 (4×) and 0.50 (2×) and 1.00
effect on hindlimb function (hindlimb placing test) ([2]; low or high dose, 4 weeks post ischemic brain injury, rats, dose responsive, reversible): effective to improve hindlimb function; also recorded: significant improvement
Cylinder Test Score (Overall Asymmetry (%)), Mean ([3]; Group II, D30, first dosing phase (low dose, inferred)): 26.98%
Cylinder Test Score (Overall Asymmetry (%)), Mean ([3]; Group II, D32, first dosing phase (low dose, inferred)): 23.50%
Cylinder Test Score (Overall Asymmetry (%)), Mean ([3]; Group II, D58, third dosing phase (high dose, inferred), N 12): 35.52%
Cylinder Test Score (Overall Asymmetry (%)), Mean ([3]; Group II, D60, third dosing phase (high dose, inferred), N 14): 4.43%
Cylinder Test Score (Overall Asymmetry (%)), Mean ([3]; Group III, D44, second dosing phase (high dose, inferred), N 13): 27.98%
Cylinder Test Score (Overall Asymmetry (%)), Mean ([3]; Group III, D46, second dosing phase (high dose, inferred), N 13): 10.17%
Cylinder Test Score (Overall Asymmetry (%)), Mean ([3]; Group III, D58, third dosing phase (low dose, inferred)): 12.32%
Cylinder Test Score (Overall Asymmetry (%)), Mean ([3]; Group III, D60, third dosing phase (low dose, inferred)): 3.23%
Cylinder Test Score (Overall Asymmetry (%)), Mean ([3]; group mean N=10, Group I, Phase 1, D30, High 4-AP 2.0 mg/kg b.i.d. p.o., after first dose): 17.78%
Cylinder Test Score (Overall Asymmetry (%)), Mean ([3]; group mean N=13, Group I, Phase 1, D32, High 4-AP 2.0 mg/kg b.i.d. p.o., after 5th dose): −15.95%
Cylinder Test Score (Overall Asymmetry (%)), Mean ([3]; group mean N=13, Group I, Phase 2, D46, Low 4-AP 0.63 mg/kg b.i.d. p.o., after 5th dose): 16.29%
Cylinder Test Score (Overall Asymmetry (%)), Mean [3, 4]: 10.38%
Cylinder Test Score (Overall Asymmetry (%)) ([3]; Group I, Phase 1, D30, High 4-AP 2.0 mg/kg b.i.d. p.o., after first dose): 9.33% and 0.00% and 50.00% (3×) and 16.67% and 38.46% and −16.67% and −100.00% and 80.00%
Cylinder Test Score (Overall Asymmetry (%)) ([3]; Group I, Phase 1, D32, High 4-AP 2.0 mg/kg b.i.d. p.o., after 5th dose): 36.36% and 24.07% and 22.73% and 5.13% and −30.00% and −100.00% (2×) and 50.00% (2×) and −60.00% and −65.79% and 16.67% and −56.52%
Cylinder Test Score (Overall Asymmetry (%)) ([3]; Group I, Phase 2, D44, Low 4-AP 0.63 mg/kg b.i.d. p.o., after first dose): 60.71% and 25.81% and 39.58% and 22.81% and 31.91% and 33.33% (2×) and 39.02% and −45.45% and −60.00% and −56.06% and 40.00% and 9.30% and 10.00% and −28.57%
Cylinder Test Score (Overall Asymmetry (%)) ([3]; Group I, Phase 2, D46, Low 4-AP 0.63 mg/kg b.i.d. p.o., after 5th dose): 63.64% and 14.89% and 30.23% and 33.33% (3×) and 36.96% and −8.33% (2×) and 25.00% and −100.00% and 50.00% and 7.69%
effect on body symmetry and coordination (cylinder test) ([3]; rats after MCAO, reversible and dose-dependent): effective to improve the asymmetry in limb usage
